According to patent publication US8026245B2, “HIV replication inhibiting purine derivatives” (Janssen Pharmaceutica N.V., priority 2003, dated 2011):

Tests used:
HIV-1 [1] = conditions: for pSI (pEC50 − pCC50): Method B, selectivity index, ratio of CC50 to EC50
[2] = Method B: cytotoxicity in mock-infected MT-4 cells engineered with GFP under a constitutional promotor; assay type: cell-based; conditions: human; Method B; mock-infected MT-4 cells with GFP, fluorescence reduced by 50%; read-out: pCC50 (−logCC50) (converted)
Description: (§1) In these cells, engineered with GFP (and an HIV-specific promotor), ongoing HIV-infection was measured fluorometrically. Cytotoxicity is measured in the same cells, but engineered with GFP under a constitutional promotor. The infection (or inhibition thereof) of HIV infected cells and the fluorescence of mock-infected cells is assessed by the fluorescent GFP signal generated by the two above mentioned cell lines.
(§2) The 50% cytotoxic concentration (CC50 in μM) was defined as the concentration of compound that reduced fluorescence of the mock-infected cells by 50%.

HIV-1 [3] = experiment: microbe, parasite or virus in culture; conditions: Human immunodeficiency virus 1, MT4, read-out: pEC50 (−logEC50) (converted)
mock-infected MT-4 cells = experiment: Method B: cytotoxicity in mock-infected MT-4 cells engineered with GFP under a constitutional promotor; assay type: cell-based
Description: as §1, §2

SMILES	pSI (pEC50 − pCC50) (HIV-1 [1])	CC50 [2] [nM]	EC50 (HIV-1 [3]) [nM]	pEC50 (−logEC50) (HIV-1 [1])	pCC50 (−logCC50) (mock-infected MT-4 cells)
CCn1cnc2c(Nc3c(C)cc(/C=C/C#N)cc3OC)nc(Nc3ccc(C#N)cc3)nc21 [Compound 48]	>4.6	> 25100	0.631		
COc1cc(OC)c(Nc2nc(Nc3ccc(C#N)cc3)nc3[nH]cnc23)c(OC)c1 [Compound 26]	−4.3			9.3	5.0
CC(C#N)=Cc1cc(C)c(Nc2nc(Nc3ccc(C#N)cc3)nc3[nH]cnc23)c(C)c1 [Compound 62]	>4.0			8.6	<4.6
Cc1cc(/C=C/C#N)cc(C)c1Nc1nc(Nc2ccc(C#N)cc2)nc2[nH]cnc12 [Compound 34]	−3.7			8.5	4.8
COc1ccc(Cn2cnc3nc(Nc4ccc(C#N)cc4)nc(Oc4c(OC)cc(/C=C/C#N)cc4OC)c32)cc1 [Compound 19]	<−4.6			9.2	<4.6
C/C(C#N)=C(/C)c1cc(C)c(Nc2nc(Nc3ccc(C#N)cc3)nc3[nH]cnc23)c(C)c1 [Compound 65]	3.1			8.1	5.0
Cc1cc(OCC#N)cc(C)c1Nc1nc(Nc2ccc(C#N)cc2)nc2[nH]cnc12 [Compound 31]	<−4.7			9.3	<4.6
Cc1cc(C#N)cc(C)c1Nc1nc(Nc2ccc(C#N)cc2)nc2[nH]cnc12 [Compound 29]	−3.8			8.7	4.9
Cc1cc(C#N)cc(C)c1Nc1nc(Nc2ccc(C#N)cc2)nc2c1ncn2C [Compound 46]	>4.8			9.4	<4.6
Cc1cc(/C=C/C#N)cc(Cl)c1Nc1nc(Nc2ccc(C#N)cc2)nc2[nH]cnc12 [Compound 54]	3.2			8.7	5.5
CCC(=CC#N)c1cc(C)c(Nc2nc(Nc3ccc(C#N)cc3)nc3[nH]cnc23)c(C)c1 [Compound 58]	3.2			8.3	5.1
CC(=CC#N)c1cc(C)c(Nc2nc(Nc3ccc(C#N)cc3)nc3[nH]cnc23)c(C)c1 [Compound 56]	>3.8			8.4	<4.6
COc1cc(/C=C/C#N)cc(C)c1Nc1nc(Nc2ccc(C#N)cc2)nc2c1ncn2C(C)C [Compound 49]	3.5			9.0	5.5
COc1ccc(Cn2cnc3c(Nc4c(C)cc(/C=C/C#N)cc4C)nc(Nc4ccc(C#N)cc4)nc32)cc1 [Compound 3]	−2.6	1260	3.16		
Cc1cc(/C=C/C#N)cc(C)c1Nc1nc(Nc2ccc(C#N)cc2)nc2ncn(C)c12 [Compound 44]	3.3				4.7
Cc1cc(CCC#N)cc(C)c1Nc1nc(Nc2ccc(C#N)cc2)nc2[nH]cnc12 [Compound 32]	−3.5			8.3	4.8
COc1ccc(Cn2cnc3nc(Nc4ccc(C#N)cc4)nc(Oc4c(C)cc(/C=C/C(N)=O)cc4C)c32)cc1 [Compound 20]	−3.2			8.4	5.2
COc1ccc(Cn2cnc3nc(Nc4ccc(C#N)cc4)nc(Oc4c(C)cc(/C=C/C#N)cc4C)c32)cc1 [Compound 4]	−3.4	10000	3.98		
N#C/C=C/c1cc(Cl)c(Nc2nc(Nc3ccc(C#N)cc3)nc3[nH]cnc23)c(Cl)c1 [Compound 55]	3.0			8.6	5.6
Cc1cc(/C=C/C#N)cc(C)c1Oc1nc(Nc2ccc(C#N)cc2)nc2[nH]cnc12 [Compound 33]	−3.5			8.5	5.0

SMILES	pSI (pEC50 − pCC50) (HIV-1 [1])	CC50 [2] [nM]	EC50 (HIV-1 [3]) [nM]	pEC50 (−logEC50) (HIV-1 [1])	pCC50 (−logCC50) (mock-infected MT-4 cells)
COc1ccc(Cn2cnc3c(Nc4c(C)cc(CCC#N)cc4C)nc(Nc4ccc(C#N)cc4)nc32)cc1 [Compound 13]	−3.1			8.2	5.2
COc1ccc(Cn2cnc3c(Nc4ccc(C#N)cc4)nc(Nc4c(C)cc(/C=C/C#N)cc4C)nc32)cc1 [Compound 73]	>3.7	> 25100	5.01		
COc1cc(/C=C/C#N)cc(OC)c1Oc1nc(Nc2ccc(C#N)cc2)nc2[nH]cnc12 [Compound 35]	−3.5			8.4	4.9
CCC(=CC#N)c1cc(C)c(Nc2nc(Nc3ccc(C#N)cc3)nc3c2ncn3C)c(C)c1 [Compound 59]	>3.9			8.5	<4.6
CCC(=CC#N)c1cc(C)c(Nc2nc(Nc3ccc(C#N)cc3)nc3c2ncn3CC#N)c(C)c1 [Compound 60]	3.6			8.6	5.0
CCN(C)C(=O)/C=C/c1cc(C)c(Oc2nc(Nc3ccc(C#N)cc3)nc3ncn(Cc4ccc(OC)cc4)c23)c(C)c1 [Compound 1]	<−3.8	> 25100	3.98		
COc1cc(C=C(C)C#N)cc(C)c1Nc1nc(Nc2ccc(C#N)cc2)nc2[nH]cnc12 [Compound 63]	3.3			8.4	5.1
Cc1cc(/C=C/C(=O)N(C)C)cc(C)c1Nc1nc(Nc2ccc(C#N)cc2)nc2[nH]cnc12 [Compound 37]	−2.7			8.1	5.4
Cc1cc(C)c(Nc2nc(Nc3ccc(C#N)cc3)nc3c2ncn3C)c(C)c1 [Compound 45]	>4.6			9.2	<4.6
CC(C#N)=Cc1cc(C)c(Nc2nc(Nc3ccc(C#N)cc3)nc3c2ncn3C)c(C)c1 [Compound 64]	>4.7			9.3	<4.6
COc1cc(/C=C/C#N)cc(C)c1Nc1nc(Nc2ccc(C#N)cc2)nc2c1ncn2CCO [Compound 50]	3.4			9.2	5.8
COc1cc(/C=C/C#N)cc(Cl)c1Nc1nc(Nc2ccc(C#N)cc2)nc2[nH]cnc12 [Compound 53]	2.6			8.7	6.1
COc1ccc(Cn2cnc3c(Nc4ccc(C#N)cc4)nc(Nc4c(C)cc(C#N)cc4C)nc32)cc1 [Compound 72]	>3.9	> 25100	3.16		
C/C(=C\C#N)c1cc(C)c(Nc2nc(Nc3ccc(C#N)cc3)nc3c2ncn3C)c(C)c1 [Compound 57]	>4.4	> 25100	1		
CCOc1cc(C)c(Nc2nc(Nc3ccc(C#N)cc3)nc3[nH]cnc23)c(C)c1 [Compound 30]	−4.0			8.8	4.8
COc1ccc(Cn2cnc3c(Nc4c(C)cc(/C=C/C#N)cc4Cl)nc(Nc4ccc(C#N)cc4)nc32)cc1 [Compound 14]	−2.8			8.3	5.5
COc1ccc(Cn2cnc3c(Nc4c(C)cc(/C=C/C#N)cc4OC)nc(Nc4ccc(C#N)cc4)nc32)cc1 [Compound 2]	−3.7	5010	1		
COc1ccc(Cn2cnc3nc(Nc4ccc(C#N)cc4)nc(Oc4c(C)cc(/C=C/C(=O)N(C)C)cc4C)c32)cc1 [Compound 21]	−3.6			8.4	4.8
CCN(C)C(=O)/C=C/c1cc(C)c(Oc2nc(Nc3ccc(C#N)cc3)nc3nc[nH]c23)c(C)c1 [Compound 5]	−3.2	5010	3.16		
